Source: patent publication US12371428B2 (Exelixis, Inc., priority 2019, dated 2025)

Legend:
Assay type in all cases: cell-based
[1] = molecular target: Mer (phospho-Mer, MERTK-transfected 293A cells) (Homo sapiens (Human), UniProt Q12866); assay: Mer autophosphorylation ELISA in transient transfected 293A cells (Example H); details: cellular activity; Mer autophosphorylation ELISA in transient transfected 293A cells
Outline: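 IC50 from phospho-Mer ELISA of MERTK-transfected 293A cell lysates after 1 h treatment with serially diluted compound in serum-free medium.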

[2] = molecular target: KDR (phospho-KDR, VEGF165-stimulated HUVEC cells) (Homo sapiens (Human), UniProt P35968); assay: KDR autophosphorylation ELISA in HUVEC cells (Example G); details: cellular activity; KDR autophosphorylation ELISA in HUVEC cells
Chain of KDR (phospho-KDR, VEGF165-stimulated HUVEC cells) (P35968 20-1356): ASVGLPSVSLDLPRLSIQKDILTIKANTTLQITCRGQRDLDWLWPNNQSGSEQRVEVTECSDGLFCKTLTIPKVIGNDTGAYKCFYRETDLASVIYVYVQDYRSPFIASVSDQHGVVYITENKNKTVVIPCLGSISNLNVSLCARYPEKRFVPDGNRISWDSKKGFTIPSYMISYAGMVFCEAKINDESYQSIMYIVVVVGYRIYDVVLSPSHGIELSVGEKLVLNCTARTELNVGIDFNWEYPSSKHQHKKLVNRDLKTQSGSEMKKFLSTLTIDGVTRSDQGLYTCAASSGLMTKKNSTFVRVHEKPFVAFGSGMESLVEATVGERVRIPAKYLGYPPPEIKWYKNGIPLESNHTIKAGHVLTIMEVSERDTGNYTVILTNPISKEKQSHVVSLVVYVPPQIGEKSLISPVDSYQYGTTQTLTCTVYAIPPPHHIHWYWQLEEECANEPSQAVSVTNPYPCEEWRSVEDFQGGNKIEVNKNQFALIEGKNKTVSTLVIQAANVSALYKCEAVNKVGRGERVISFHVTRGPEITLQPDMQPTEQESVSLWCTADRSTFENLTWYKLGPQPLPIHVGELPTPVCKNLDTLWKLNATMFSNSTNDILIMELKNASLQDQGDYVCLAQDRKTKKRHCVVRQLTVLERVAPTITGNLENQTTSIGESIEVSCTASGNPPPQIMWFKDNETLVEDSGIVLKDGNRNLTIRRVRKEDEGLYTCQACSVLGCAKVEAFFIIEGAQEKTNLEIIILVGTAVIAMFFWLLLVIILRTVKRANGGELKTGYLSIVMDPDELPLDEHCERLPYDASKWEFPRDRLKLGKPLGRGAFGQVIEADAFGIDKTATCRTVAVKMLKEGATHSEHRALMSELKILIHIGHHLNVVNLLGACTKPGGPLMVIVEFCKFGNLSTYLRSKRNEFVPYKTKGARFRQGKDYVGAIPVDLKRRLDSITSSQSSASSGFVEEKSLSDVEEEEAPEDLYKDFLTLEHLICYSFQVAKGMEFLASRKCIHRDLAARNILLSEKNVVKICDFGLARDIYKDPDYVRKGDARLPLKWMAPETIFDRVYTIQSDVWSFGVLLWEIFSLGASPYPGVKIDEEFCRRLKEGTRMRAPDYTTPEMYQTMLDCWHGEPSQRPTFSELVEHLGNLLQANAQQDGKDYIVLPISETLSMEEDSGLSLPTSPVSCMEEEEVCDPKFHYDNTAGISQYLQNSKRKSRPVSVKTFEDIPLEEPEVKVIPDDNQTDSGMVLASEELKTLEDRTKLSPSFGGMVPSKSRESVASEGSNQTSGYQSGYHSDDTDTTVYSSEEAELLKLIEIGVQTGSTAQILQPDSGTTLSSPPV
Outline: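 Read-out is phospho-KDR measured by ELISA in lysates of VEGF165-stimulated (100 ng/mL, 5 min) HUVEC that were serum-starved 24 h and then pre-exposed 1 h to compound across 8 doses in 0.3% DMSO. Unstimulated lysates defined 0% and stimulated vehicle lysates 100% activity; IC50 values come from 4-parameter logistic regression.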

[3] = molecular target: Met (phospho-Met, HGF-stimulated PC-3 prostate cancer cells) (Homo sapiens (Human), UniProt P08581); assay: Met autophosphorylation ELISA in PC-3 cells (Example F); details: cellular activity; Met autophosphorylation ELISA in PC-3 cells; read-out: c-Met IC50
Chain of Met (phospho-Met, HGF-stimulated PC-3 prostate cancer cells) (P08581 25-1390): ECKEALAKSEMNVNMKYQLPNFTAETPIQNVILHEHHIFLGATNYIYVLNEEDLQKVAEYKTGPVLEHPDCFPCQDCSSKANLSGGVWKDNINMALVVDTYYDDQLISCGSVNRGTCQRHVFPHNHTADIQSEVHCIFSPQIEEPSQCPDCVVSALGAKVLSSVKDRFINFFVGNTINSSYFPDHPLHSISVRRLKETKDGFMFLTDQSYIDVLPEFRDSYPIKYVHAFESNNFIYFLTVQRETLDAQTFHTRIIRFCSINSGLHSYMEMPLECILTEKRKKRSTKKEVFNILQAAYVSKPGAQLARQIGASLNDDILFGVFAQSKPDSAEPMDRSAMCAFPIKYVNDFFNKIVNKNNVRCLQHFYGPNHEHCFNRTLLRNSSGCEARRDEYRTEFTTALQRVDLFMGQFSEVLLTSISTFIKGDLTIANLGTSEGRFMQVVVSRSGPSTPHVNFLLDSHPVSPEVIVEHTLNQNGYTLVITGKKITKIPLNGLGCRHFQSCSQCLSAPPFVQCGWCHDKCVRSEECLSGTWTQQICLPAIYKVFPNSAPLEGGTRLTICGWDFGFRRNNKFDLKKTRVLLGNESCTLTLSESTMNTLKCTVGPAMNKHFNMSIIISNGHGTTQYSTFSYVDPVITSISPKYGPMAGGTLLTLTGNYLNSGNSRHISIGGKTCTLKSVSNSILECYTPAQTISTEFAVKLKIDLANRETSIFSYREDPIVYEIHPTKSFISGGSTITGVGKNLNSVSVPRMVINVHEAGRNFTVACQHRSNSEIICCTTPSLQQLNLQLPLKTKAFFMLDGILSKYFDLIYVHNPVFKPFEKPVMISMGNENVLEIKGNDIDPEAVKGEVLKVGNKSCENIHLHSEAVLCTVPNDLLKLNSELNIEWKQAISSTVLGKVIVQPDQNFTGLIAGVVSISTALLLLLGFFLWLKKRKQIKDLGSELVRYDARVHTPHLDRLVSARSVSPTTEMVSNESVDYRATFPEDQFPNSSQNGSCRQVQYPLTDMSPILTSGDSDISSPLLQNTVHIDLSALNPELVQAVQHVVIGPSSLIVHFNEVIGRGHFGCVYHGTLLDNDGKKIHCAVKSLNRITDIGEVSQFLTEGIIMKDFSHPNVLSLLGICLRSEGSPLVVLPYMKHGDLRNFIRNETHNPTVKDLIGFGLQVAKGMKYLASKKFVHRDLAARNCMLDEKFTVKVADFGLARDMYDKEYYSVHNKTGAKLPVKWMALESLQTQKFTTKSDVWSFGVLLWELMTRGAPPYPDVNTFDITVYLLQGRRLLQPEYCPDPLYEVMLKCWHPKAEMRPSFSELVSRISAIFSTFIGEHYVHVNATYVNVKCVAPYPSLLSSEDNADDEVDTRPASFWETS
Outline: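 IC50 values derive from a 4-parameter logistic fit of phospho-Met (panTyr) sandwich ELISA signals in PC-3 lysates, scaled between DMSO and reference-inhibitor wells. Cells, starved 3 h in serum-free medium, had 1 h compound exposure (8 doses, 0.3% DMSO) before 10 min stimulation with 100 ng/mL HGF.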

Chain of Mer (phospho-Mer, MERTK-transfected 293A cells) (Q12866 21-999): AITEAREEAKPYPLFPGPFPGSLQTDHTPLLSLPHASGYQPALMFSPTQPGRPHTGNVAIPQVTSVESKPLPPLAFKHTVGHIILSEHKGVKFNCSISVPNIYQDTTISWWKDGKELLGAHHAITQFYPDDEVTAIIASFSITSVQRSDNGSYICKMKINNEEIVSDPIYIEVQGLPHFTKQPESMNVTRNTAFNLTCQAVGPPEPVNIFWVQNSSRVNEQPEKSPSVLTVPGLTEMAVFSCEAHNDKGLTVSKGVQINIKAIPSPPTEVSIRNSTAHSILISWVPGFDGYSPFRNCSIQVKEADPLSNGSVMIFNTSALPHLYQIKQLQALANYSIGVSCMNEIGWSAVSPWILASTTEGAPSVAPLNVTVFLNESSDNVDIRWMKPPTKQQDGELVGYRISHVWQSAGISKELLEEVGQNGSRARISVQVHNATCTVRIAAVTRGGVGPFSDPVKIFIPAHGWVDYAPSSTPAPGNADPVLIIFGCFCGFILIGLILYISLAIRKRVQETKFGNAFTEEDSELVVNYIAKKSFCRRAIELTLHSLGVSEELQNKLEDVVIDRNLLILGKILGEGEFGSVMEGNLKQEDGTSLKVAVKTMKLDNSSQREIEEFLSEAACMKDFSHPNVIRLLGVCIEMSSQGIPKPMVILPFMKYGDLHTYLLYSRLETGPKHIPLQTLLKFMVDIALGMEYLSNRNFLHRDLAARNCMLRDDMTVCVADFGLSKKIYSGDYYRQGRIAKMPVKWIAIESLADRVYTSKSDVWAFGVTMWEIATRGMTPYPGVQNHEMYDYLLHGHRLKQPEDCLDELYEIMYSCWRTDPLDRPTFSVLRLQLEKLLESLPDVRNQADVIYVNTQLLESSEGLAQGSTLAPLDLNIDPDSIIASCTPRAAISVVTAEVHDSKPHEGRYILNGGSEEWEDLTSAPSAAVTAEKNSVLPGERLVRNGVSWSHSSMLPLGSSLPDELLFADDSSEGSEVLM

Compound	IC50 [1]	IC50 [2]	IC50 [3]
C=C(C)c1cnc2c(Oc3ccc(NC(=O)c4cnc(C)c(-c5ccc(F)cc5C)c4O)cc3)ccnc2c1 [Compound 448, 5-(4-fluoro-2-methylphenyl)-4-hydroxy-6-methyl-N-[4-[(7-prop-1-en-2-yl-1,5-naphthyridin-4-yl)oxy]phenyl]pyridine-3-carboxamide]	< 100 nM	< 100 nM	< 100 nM
C=C(C)c1cnc2c(Oc3ccc(NC(=O)c4cnc(C)c(-c5ccc(F)cc5C)c4O)cc3F)ccnc2c1 [Compound 450, 5-(4-fluoro-2-methylphenyl)-N-[3-fluoro-4-[(7-prop-1-en-2-yl-1,5-naphthyridin-4-yl)oxy]phenyl]-4-hydroxy-6-methylpyridine-3-carboxamide]	< 100 nM	< 100 nM	< 100 nM
C=C(C)c1cnc2c(Oc3ccc(NC(=O)c4cnc(C)c(-c5ccc(F)cc5)c4O)cc3)ccnc2c1 [Compound 454, 5-(4-fluorophenyl)-4-hydroxy-6-methyl-N-[4-[(7-prop-1-en-2-yl-1,5-naphthyridin-4-yl)oxy]phenyl]pyridine-3-carboxamide]	< 100 nM	< 100 nM	< 100 nM
C=C(C)c1cnc2c(Oc3ccc(NC(=O)c4c(C)nc(C)c(-c5ccc(F)cc5)c4O)cc3)ccnc2c1 [Compound 455, 5-(4-fluorophenyl)-4-hydroxy-2,6-dimethyl-N-[4-[(7-prop-1-en-2-yl-1,5-naphthyridin-4-yl)oxy]phenyl]pyridine-3-carboxamide]	< 100 nM	< 100 nM	< 100 nM
C=C(C)c1cnc2c(Oc3ccc(NC(=O)c4cnc(C)c(-c5ccc(F)cc5)c4O)cc3F)ccnc2c1 [Compound 456, 5-(4-fluorophenyl)-N-[3-fluoro-4-[(7-prop-1-en-2-yl-1,5-naphthyridin-4-yl)oxy]phenyl]-4-hydroxy-6-methylpyridine-3-carboxamide]	< 100 nM	< 100 nM	< 100 nM
C=C(C)c1cnc2c(Oc3ccc(NC(=O)c4c(C)cc(C)n(-c5ccc(F)cc5)c4=O)cc3F)ccnc2c1 [Compound 457, 1-(4-fluorophenyl)-N-[3-fluoro-4-[(7-prop-1-en-2-yl-1,5-naphthyridin-4-yl)oxy]phenyl]-4,6-dimethyl-2-oxopyridine-3-carboxamide]	< 100 nM	< 100 nM	< 100 nM
COc1cc2nccc(Oc3ccc(NC(=O)c4c(C)n(C)cc(-c5ccc(F)cc5C)c4=O)cc3F)c2nc1OC [Compound 481, N-[4-[(6,7-dimethoxy-1,5-naphthyridin-4-yl)oxy]-3-fluorophenyl]-5-(4-fluoro-2-methylphenyl)-1,2-dimethyl-4-oxopyridine-3-carboxamide]	< 100 nM	< 100 nM	< 100 nM
COc1ccc2nccc(Oc3ccc(NC(=O)c4c(C)n(C)cc(-c5ccc(F)cc5C)c4=O)cc3F)c2n1 [Compound 483, N-[3-fluoro-4-[(6-methoxy-1,5-naphthyridin-4-yl)oxy]phenyl]-5-(4-fluoro-2-methylphenyl)-1,2-dimethyl-4-oxopyridine-3-carboxamide]	< 100 nM	> 300 nM	< 100 nM
COc1cc2c(Oc3ccc(NC(=O)c4ccc(C)n(-c5ccc(F)cc5)c4=O)cc3F)ccnc2cn1 [Compound 494, N-[3-fluoro-4-[(6-methoxy-1,7-naphthyridin-4-yl)oxy]phenyl]-1-(4-fluorophenyl)-6-methyl-2-oxopyridine-3-carboxamide]	< 100 nM	< 100 nM	< 100 nM
COc1cc2nccc(Oc3ccc(NC(=O)c4cn(C)cc(-c5ccc(F)cc5C)c4=O)cc3F)c2nc1OC [Compound 503, N-[4-[(6,7-dimethoxy-1,5-naphthyridin-4-yl)oxy]-3-fluorophenyl]-5-(4-fluoro-2-methylphenyl)-1-methyl-4-oxopyridine-3-carboxamide]	< 100 nM	< 100 nM	< 100 nM
COc1cnc2c(Oc3ccc(NC(=O)c4c(C)n(C)c(C)c(-c5ccc(F)cc5)c4=O)cc3F)ccnc2c1 [Compound 508, N-[3-fluoro-4-[(7-methoxy-1,5-naphthyridin-4-yl)oxy]phenyl]-5-(4-fluorophenyl)-1,2,6-trimethyl-4-oxopyridine-3-carboxamide]	< 100 nM	> 300 nM	< 100 nM
CCc1nc(C)c(-c2ccc(F)cc2)c(O)c1C(=O)Nc1ccc(Oc2ccnc3ccc(OC)nc23)cc1 [Compound 509, 2-ethyl-5-(4-fluorophenyl)-4-hydroxy-N-[4-[(6-methoxy-1,5-naphthyridin-4-yl)oxy]phenyl]-6-methylpyridine-3-carboxamide]	< 100 nM	< 100 nM	< 100 nM
COCc1nc(C)c(-c2ccc(F)cc2)c(O)c1C(=O)Nc1ccc(Oc2ccnc3ccc(OC)nc23)cc1 [Compound 510, 5-(4-fluorophenyl)-4-hydroxy-2-(methoxymethyl)-N-[4-[(6-methoxy-1,5-naphthyridin-4-yl)oxy]phenyl]-6-methylpyridine-3-carboxamide]	< 100 nM	< 100 nM	< 100 nM

Continued, values first:

IC50 [1]	IC50 [2]	IC50 [3]	Compound
< 100 nM	< 100 nM	< 100 nM	C=C(C)c1cnc2c(Oc3ccc(NC(=O)c4c(C)nc(C)c(-c5ccc(F)cc5)c4O)cc3F)ccnc2c1 [Compound 451, 5-(4-fluorophenyl)-N-[3-fluoro-4-[(7-prop-1-en-2-yl-1,5-naphthyridin-4-yl)oxy]phenyl]-4-hydroxy-2,6-dimethylpyridine-3-carboxamide]
< 100 nM	< 100 nM	< 100 nM	COc1nc2c(Oc3ccc(NC(=O)c4cnc(C)c(-c5ccc(F)cc5)c4O)cc3F)ccnc2cc1C [Compound 458, N-[3-fluoro-4-[(6-methoxy-7-methyl-1,5-naphthyridin-4-yl)oxy]phenyl]-5-(4-fluorophenyl)-4-hydroxy-6-methylpyridine-3-carboxamide]
< 100 nM	< 100 nM	< 100 nM	COc1nc2c(Oc3ccc(NC(=O)c4c(C)nc(C)c(-c5ccc(F)cc5)c4O)cc3F)ccnc2cc1C [Compound 459, N-[3-fluoro-4-[(6-methoxy-7-methyl-1,5-naphthyridin-4-yl)oxy]phenyl]-5-(4-fluorophenyl)-4-hydroxy-2,6-dimethylpyridine-3-carboxamide]
< 100 nM	< 100 nM	< 100 nM	COc1nc2c(Oc3ccc(NC(=O)c4cnc(C)c(-c5ccc(F)cc5C)c4O)cc3F)ccnc2cc1C [Compound 460, N-[3-fluoro-4-[(6-methoxy-7-methyl-1,5-naphthyridin-4-yl)oxy]phenyl]-5-(4-fluoro-2-methylphenyl)-4-hydroxy-6-methylpyridine-3-carboxamide]
< 100 nM	< 100 nM	< 100 nM	COc1cc2nccc(Oc3ccc(NC(=O)c4c(C)ncc(-c5ccc(F)cc5C)c4O)cc3F)c2nc1OC [Compound 479, N-[4-[(6,7-dimethoxy-1,5-naphthyridin-4-yl)oxy]-3-fluorophenyl]-5-(4-fluoro-2-methylphenyl)-4-hydroxy-2-methylpyridine-3-carboxamide]
< 100 nM	< 100 nM	< 100 nM	COc1ccc2nccc(Oc3ccc(NC(=O)c4c(C)ncc(-c5ccc(F)cc5C)c4O)cc3F)c2n1 [Compound 480, N-[3-fluoro-4-[(6-methoxy-1,5-naphthyridin-4-yl)oxy]phenyl]-5-(4-fluoro-2-methylphenyl)-4-hydroxy-2-methylpyridine-3-carboxamide]
< 100 nM	< 100 nM	< 100 nM	COCCOc1cc2nccc(Oc3ccc(NC(=O)c4c(COC)nc(C)c(-c5ccc(F)cc5)c4O)cc3F)c2nc1OC [Compound 482, N-[3-fluoro-4-[[6-methoxy-7-(2-methoxyethoxy)-1,5-naphthyridin-4-yl]oxy]phenyl]-5-(4-fluorophenyl)-4-hydroxy-2-(methoxymethyl)-6-methylpyridine-3-carboxamide]
< 100 nM	< 100 nM	< 100 nM	CCc1ncc(C(=O)Nc2ccc(Oc3ccnc4cc(OC)c(OC)nc34)c(F)c2)c(O)c1-c1ccc(F)cc1 [Compound 504, N-[4-[(6,7-dimethoxy-1,5-naphthyridin-4-yl)oxy]-3-fluorophenyl]-6-ethyl-5-(4-fluorophenyl)-4-hydroxypyridine-3-carboxamide]
100 to 300 nM	< 100 nM	< 100 nM	Cc1cc(F)ccc1-c1c(C)nc(C)c(C(=O)Nc2ccc(Oc3ccnc4cccnc34)c(F)c2)c1O [Compound 505, 5-(4-fluoro-2-methylphenyl)-N-[3-fluoro-4-(1,5-naphthyridin-4-yloxy)phenyl]-4-hydroxy-2,6-dimethylpyridine-3-carboxamide]
< 100 nM	< 100 nM	< 100 nM	Cc1ccc2nccc(Oc3ccc(NC(=O)c4c(C)nc(C)c(-c5ccc(F)cc5C)c4O)cc3F)c2n1 [Compound 506, N-[3-fluoro-4-[(6-methyl-1,5-naphthyridin-4-yl)oxy]phenyl]-5-(4-fluoro-2-methylphenyl)-4-hydroxy-2,6-dimethylpyridine-3-carboxamide]
